Measurements published in patent US5739145A (priority 1993, dated 1998).
Structures can show the parent of a compound that is named as a salt.

How the values were obtained:
mouse vas deferens = assay: Opioid activity test using extracted mouse vas deferens sample (inhibition of electrically stimulated contraction); format: cell-based, mouse (male ddy)
Description: (§1) Male ddy mice were provided for experimentation. Vas deferens extracted from the mice were suspended in a Magnus tube filled with a 37° C.-heated Krebes-Henseleit solution ([…], 4.7 mM KCl, 2.5 mM CaCl2, 1.1 mM KH2 PO4, 25 mM NaHCO3, 11 mM glucose) and aerated with 5% carbon dioxide and 95% oxygen. A 0.1 Hz, 5.0 mS electrical stimulus was applied via an annular platinum electrode. The tissue contraction was recorded on a polygraph using an isometric transducer.
(§2) Then, the sample was adequately washed with a nutrient solution, and when the contraction reaction stabilized, the μ-antagonist naloxone, the δ-antagonist NTI or the κ-antagonist norBNI was added thereto, and after about 20 minutes the test compound was once again added cumulatively. The Ke value was calculated from the difference in potency between the two, according to the following equation. Ke=[concentration of added antagonist]/(IC50 ratio -1) IC50 ratio=IC50 value in presence of antagonist/IC50 value in absence of antagonist

κ-receptors = molecular target: T1, κ-receptors (Mus musculus, UniProt P33534); assay: Antagonism by the κ-antagonist norBNI in extracted mouse vas deferens; format: cell-based; details: Ke=[antagonist]/(IC50 ratio -1)
T1 construct: from tissue; host or cells: vas deferens of male ddy mice
T1 sequence (P33534 whole entry): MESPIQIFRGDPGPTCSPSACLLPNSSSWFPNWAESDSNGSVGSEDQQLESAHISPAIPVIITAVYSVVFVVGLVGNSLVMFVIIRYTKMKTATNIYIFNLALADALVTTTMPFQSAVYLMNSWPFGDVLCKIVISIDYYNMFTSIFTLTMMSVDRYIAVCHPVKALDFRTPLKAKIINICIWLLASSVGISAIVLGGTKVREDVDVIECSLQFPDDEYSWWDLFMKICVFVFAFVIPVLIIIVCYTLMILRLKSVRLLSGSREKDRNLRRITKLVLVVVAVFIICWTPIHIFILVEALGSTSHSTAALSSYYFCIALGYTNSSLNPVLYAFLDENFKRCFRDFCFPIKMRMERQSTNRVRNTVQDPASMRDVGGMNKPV
Description: as §1, §2

[1] = tested on: rats (capsaicin-induced cough); assay: animal or person; format: in vivo; details: Rattus norvegicus, ip, 0.5 h
[2] = tested on: guinea pigs (cough by mechanical airway stimulation); assay: Antitussive effect by guinea pig airway stimulation method; format: in vivo, guinea pig (male Hartley); details: for ED50: Cavia porcellus, sc, guinea pig airway stimulation; for Number of animals exhibiting coughing/number of animals tested: guinea pig, s.c.
Description: A group of five male Hartley guinea pigs (5 weeks old) with a body weight of 330-380 g were used. They were fixed in the supine position under light anesthesia by intraperitoneal administration of 15 mg/kg of pentobarbital sodium, and the necks were cut open to expose the airways. A small hole was opened in each exposed airway, from which stimulating hair was inserted about 3 cm into the airway at a 30° angle to stimulate the wall of the airway, and the occurrence or lack of coughing was noted. […] The test compounds were subcutaneously administered, and the stimulation was performed twice at each point 15, 30, 60 and 120 minutes after administration, pronouncing effective those cases in which no coughing occurred either time.

δ opioid receptor = molecular target: T2, δ opioid receptor (Mus musculus, UniProt P32300); assay: Antagonism by the δ-antagonist NTI in extracted mouse vas deferens; format: cell-based; details: Ke=[antagonist]/(IC50 ratio -1)
T2 construct: from tissue; host or cells: vas deferens of male ddy mice
T2 sequence (P32300 whole entry): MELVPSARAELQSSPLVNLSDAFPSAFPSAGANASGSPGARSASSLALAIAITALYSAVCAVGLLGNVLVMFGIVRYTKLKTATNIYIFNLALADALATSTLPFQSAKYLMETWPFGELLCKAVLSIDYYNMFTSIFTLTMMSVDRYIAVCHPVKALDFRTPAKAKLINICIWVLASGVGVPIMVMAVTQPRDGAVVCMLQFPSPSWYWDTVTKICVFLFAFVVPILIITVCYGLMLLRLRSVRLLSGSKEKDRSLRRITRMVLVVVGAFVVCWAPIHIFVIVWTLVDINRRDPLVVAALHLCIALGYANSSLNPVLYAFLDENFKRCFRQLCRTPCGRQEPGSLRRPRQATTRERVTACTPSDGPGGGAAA
Description: as §1, §2

μ-receptors = molecular target: T3, μ-receptors (Mus musculus, UniProt P42866); assay: Antagonism by the μ-antagonist naloxone in extracted mouse vas deferens; format: cell-based; details: Ke=[antagonist]/(IC50 ratio -1)
T3 construct: from tissue; host or cells: vas deferens of male ddy mice
T3 sequence (P42866 whole entry): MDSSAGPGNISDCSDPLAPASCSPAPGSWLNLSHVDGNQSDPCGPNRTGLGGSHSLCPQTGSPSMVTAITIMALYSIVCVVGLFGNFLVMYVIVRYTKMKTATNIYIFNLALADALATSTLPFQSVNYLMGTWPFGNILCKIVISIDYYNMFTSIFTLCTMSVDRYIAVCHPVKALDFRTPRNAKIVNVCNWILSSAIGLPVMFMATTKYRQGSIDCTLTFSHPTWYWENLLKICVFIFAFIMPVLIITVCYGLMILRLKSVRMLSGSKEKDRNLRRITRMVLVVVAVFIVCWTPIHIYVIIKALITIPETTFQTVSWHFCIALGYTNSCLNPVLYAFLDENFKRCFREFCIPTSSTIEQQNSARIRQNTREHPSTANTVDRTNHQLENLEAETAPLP
Description: as §1, §2

| Compound | IC50 (mouse vas deferens) | Ke norBNI (κ-receptors) | ED50 [1] | ED50 [2] | Number of animals exhibiting coughing/number of animals tested ([2]; dosage 1 μg/kg) | Number of animals exhibiting coughing/number of animals tested ([2]; dosage 3 μg/kg) | Number of animals exhibiting coughing/number of animals tested ([2]; dosage 30 μg/kg) | Ke NTI (δ opioid receptor) | Ke Naloxone (μ-receptors) |
| --- | --- | --- | --- | --- | --- | --- | --- | --- | --- |
| CN(C(=O)/C=C/c1cccc(C(F)(F)F)c1)[C@@H]1CC[C@@]2(O)[C@H]3Cc4ccc(O)c5c4[C@@]2(CCN3CC2CC2)[C@H]1O5 [Compound 4, 17-cyclopropylmethyl-4,5α-epoxy-3,14β-dihydroxy-6β-(N-methyl-3-trifluoromethylcinnamamido)morphinan.tartrate] | 0.468 nM | 3.20 nM | 0.107 mg/kg | 2.6 µg/kg | 1/5 | 3/5 | 5/5 | 291 nM |  |
| CN(C(=O)/C=C/c1ccoc1)[C@@H]1CC[C@@]2(O)[C@H]3Cc4ccc(O)c5c4[C@@]2(CCN3CC2CC2)[C@H]1O5 [Compound 5, 17-cyclopropylmethyl-4,5α-epoxy-3,14β-dihydroxy-6β-[N-methyl-trans-3-(3-furyl)acrylamido] morphinan.HCl] | 0.42 nM | 0.164 nM | 0.0043 mg/kg | 3.7 µg/kg | 2/5 | 3/5 | 5/5 |  |  |
| Cc1cccc(/C=C/C(=O)N(C)[C@@H]2CC[C@@]3(O)[C@H]4Cc5ccc(O)c6c5[C@@]3(CCN4CC3CC3)[C@H]2O6)c1 [Compound 6, 17-cyclopropylmethyl-4,5α-epoxy-3,14β-dihydroxy-6β-(N-methyl-3-methylcinnamamido)morphinan.HCl] | 0.32 nM | 1.95 nM |  | 12.5 µg/kg | 1/5 | 1/5 | 4/5 | 64.5 nM | 1780 nM |
| CN(CCc1ccc(Cl)c(Cl)c1)[C@@H]1CC[C@@]2(O)[C@H]3Cc4ccc(O)c5c4[C@@]2(CCN3CC2CC2)[C@H]1O5 [Compound 7, 17-cyclopropylmethyl-4,5α-epoxy-3,14β-dihydroxy-6β-[N-methyl-N-2-(3,4-dichlorophenyl)ethylamino]morphinan.1.9 HCl] |  |  | 0.437 mg/kg |  |  |  |  |  |  |
| CN(C(=O)OCc1ccccc1)[C@@H]1CC[C@@]2(O)[C@H]3Cc4ccc(O)c5c4[C@@]2(CCN3CC2CC2)[C@H]1O5 [Compound 8, 17-cyclopropylmethyl-4,5α-epoxy-3,14β-dihydroxy-6β-(N-methyl-benzyloxycarbamido)morphinan.HCl] | 0.42 nM | 1.00 nM | 0.00179 mg/kg |  |  |  |  | 532 nM |  |
| O=C(CCc1ccccc1)O[C@H]1CC[C@@]2(O)[C@H]3Cc4ccc(O)c5c4[C@@]2(CCN3CC2CC2)[C@H]1O5 [Compound 9, 17-cyclopropylmethyl-4,5α-epoxy-3,14β-dihydroxy-6α-(3-phenylpropionyloxy)morphinan.tartrate] |  |  | 3.3 mg/kg |  |  |  |  |  |  |
| CN(C(=O)/C=C/c1cccc(OC(F)(F)F)c1)[C@@H]1CC[C@@]2(O)[C@H]3Cc4ccc(O)c5c4[C@@]2(CCN3CC2CC2)[C@H]1O5 [Compound 10, 17-cyclopropylmethyl-4,5α-epoxy-3,14β-dihydroxy-6β-(N-methyl-3-trifluoromethoxycinnamamido)morphinan.tartrate] |  | 0.17 nM | 0.0021 mg/kg |  |  |  |  | 17.6 nM | 10.8 nM |
| Cc1cccc(C#CC(=O)N(C)[C@@H]2CC[C@@]3(O)[C@H]4Cc5ccc(O)c6c5[C@@]3(CCN4CC3CC3)[C@H]2O6)c1 [Compound 11, 17-cyclopropylmethyl-4,5α-epoxy-3,14β-dihydroxy-6β-[N-methyl-3-(3-methylphenyl)propiolamido]morphinan.HCl] |  |  | 0.0135 mg/kg |  |  |  |  |  |  |
| COc1ccc2c3c1O[C@H]1[C@H](N(C)C(=O)/C=C/c4ccoc4)CC[C@@]4(O)[C@@H](C2)N(CC2CC2)CC[C@]314 [Compound 12, 17-cyclopropylmethyl-4,5α-epoxy-3-methoxy-14β-hydroxy-6β-[N-methyl-trans-3-(3-furyl)acrylamido]morphinan.HCl] |  |  | 0.00012 mg/kg |  |  |  |  |  |  |
| COc1ccc2c3c1O[C@H]1[C@H](N(C)C(=O)C#Cc4cccc(C)c4)CC[C@@]4(O)[C@@H](C2)N(CC2CC2)CC[C@]314 [Compound 13, 17-cyclopropylmethyl-4,5α-epoxy-3-methoxy-14β-hydroxy-6β-[N-methyl-3-(3-methylphenyl)propiolamido]morphinan.HCl] |  |  | 0.0121 mg/kg |  |  |  |  |  |  |
